Patent publication US9827235B2, “Pharmaceutical compositions comprising antibacterial agents” (WOCKHARDT LIMITED, priority 2013, dated 2017)

Tests used:
Type in all cases: cell-based
E. coli M 44 = assay: MIC on Muller Hinton Agar (CLSI); conditions: Escherichia coli, M44, agent alone, enzymes TEM, NDM-1, read-out: MIC
Procedure: (§1) The antibacterial activity of combinations according to the invention was investigated against various bacterial strains. In a typical study, minimum inhibitory concentrations (MIC) were determined using Muller Hinton Agar (MHA) (BD, USA) according to Clinical and Laboratory Standards Institute (CLSI) recommendations, (Clinical and Laboratory Standards Institute (CLSI), Performance Standards for Antimicrobial Susceptibility Testing, 20th Informational Supplement, M 100-S20, Volume 30, No. 1, 2010). In short, the inocula were adjusted to deliver about 10^4 colony forming units (CFU) per spot with a multipoint inoculator (Applied Quality Services, UK). The plates were pored with doubling concentration range of the test combinations according to invention containing MHA. The plates were inoculated and were incubated at 35° C. for 18 hours.

E. coli S 16 = assay: MIC on Muller Hinton Agar (CLSI); conditions: Escherichia coli, S16, agent alone, enzymes CMY type, TEM, DHA, read-out: MIC
Procedure: as §1

E. coli S 30 = assay: MIC on Muller Hinton Agar (CLSI); conditions: Escherichia coli, S30, agent alone, enzymes CMY type, TEM, NDM-1, read-out: MIC
Procedure: as §1

E. coli S 330 = assay: MIC on Muller Hinton Agar (CLSI); conditions: Escherichia coli, S330, agent alone, enzymes NDM, read-out: MIC
Procedure: as §1

E. coli S 33 = assay: MIC on Muller Hinton Agar (CLSI); conditions: Escherichia coli, S33, agent alone, enzymes TEM, NDM-1, read-out: MIC
Procedure: as §1

E. coli S 35 = assay: MIC on Muller Hinton Agar (CLSI); conditions: Escherichia coli, S35, agent alone, enzymes TEM, NDM-1, read-out: MIC
Procedure: as §1

K. pneumoniae B 77 = assay: MIC on Muller Hinton Agar (CLSI); conditions: Klebsiella pneumoniae, B77, agent alone, enzymes SHV, TEM, NDM-1, read-out: MIC
Procedure: as §1

K. pneumoniae B 88 = assay: MIC on Muller Hinton Agar (CLSI); conditions: Klebsiella pneumoniae, B88, agent alone, enzymes SHV, TEM, NDM-1, read-out: MIC
Procedure: as §1

K. pneumoniae M 3 = assay: MIC on Muller Hinton Agar (CLSI); conditions: Klebsiella pneumoniae, M3, agent alone, enzymes SHV, CTXM, TEM, NDM-1, read-out: MIC
Procedure: as §1

K. pneumoniae NCTC 13439 = assay: MIC on Muller Hinton Agar (CLSI); conditions: Klebsiella pneumoniae, NCTC13439, agent alone, enzymes VIM-1, read-out: MIC
Procedure: as §1

K. pneumoniae S 48 = assay: MIC on Muller Hinton Agar (CLSI); conditions: Klebsiella pneumoniae, S48, agent alone, enzymes SHV, TEM, NDM-1, read-out: MIC
Procedure: as §1

K. pneumoniae S 50 = assay: MIC on Muller Hinton Agar (CLSI); conditions: Klebsiella pneumoniae, S50, agent alone, enzymes SHV, TEM, NDM-1, read-out: MIC
Procedure: as §1

[1] = test system: P. aeruginosa H 113720186; assay: MIC on Muller Hinton Agar (CLSI); conditions: Pseudomonas aeruginosa, H113720186, agent alone, enzymes IMP, read-out: MIC
Procedure: as §1

P. aeruginosa Q-111 = assay: MIC on Muller Hinton Agar (CLSI); conditions: Pseudomonas aeruginosa, Q111, agent alone, enzymes OXA-4, OXA-11, read-out: MIC
Procedure: as §1

P. aeruginosa S 504 = assay: MIC on Muller Hinton Agar (CLSI); conditions: Pseudomonas aeruginosa, S504, agent alone, enzymes VIM-6, read-out: MIC
Procedure: as §1

P. aeruginosa S 508 = assay: MIC on Muller Hinton Agar (CLSI); conditions: Pseudomonas aeruginosa, S508, agent alone, enzymes VIM-11, read-out: MIC
Procedure: as §1

P. aeruginosa S 513 = assay: MIC on Muller Hinton Agar (CLSI); conditions: Pseudomonas aeruginosa, S513, agent alone, enzymes VIM-6, read-out: MIC
Procedure: as §1

[2] = test system: clinical isolate of K. pneumoniae B 88 producing metallo beta-lactamases [SHV, TEM, NDM-1]; assay: Time kill study; conditions: for Bacterial count: each agent at 8 mcg/ml, initial count 6.18 log CFU/ml
Procedure: (§2) Typically, freshly grown cultures were diluted to the required cell density (initial starting inoculum) in Cation adjusted Muller Hinton broth medium BD, USA). The antibacterial agents at the required concentrations were added into the culture-containing medium either alone or in combination. The samples were incubated under shaking condition (120 rpm) at 37° C. Enumeration of viable bacterial count was undertaken, every 2 hour, by diluting in normal saline and plating on to the Tryptic Soya Agar plates (BD, USA). The plates were incubated for 24 hours to arrive at the viable bacterial count. […] The decrease of 1 Log CFU/ml, after administration of combination of present invention, in comparison to initial bacterial count corresponds to 90% killing of bacteria. Similarly, 2 Log CFU/ml reductions corresponds to 99% killing of bacteria and 3 Log CFU/ml reductions is equal to 99.9% killing of bacteria.

[3] = test system: clinical isolate of K. pneumoniae S 48 producing metallo beta-lactamases [SHV, TEM, NDM-1]; assay: Time kill study; conditions: for Bacterial count: each agent at 8 mcg/ml, initial count 6.84 log CFU/ml
Procedure: as §2

[4] = test system: highly resistant strains of E. coli, K. pneumonia and P. aeruginosa; assay: MIC, summary over the strain panel; conditions: agent alone; most strains of E. coli and K. pneumoniae
Procedure: as §1

[5] = used alone at 8 mcg/ml, at the end of 6 hours

Row | MIC (E. coli M 44) [mg/L] | MIC (E. coli S 16) [mg/L] | MIC (E. coli S 30) [mg/L] | MIC (E. coli S 330) [mg/L] | MIC (E. coli S 33) [mg/L] | MIC (E. coli S 35) [mg/L] | MIC (K. pneumoniae B 77) [mg/L] | MIC (K. pneumoniae B 88) [mg/L] | MIC (K. pneumoniae M 3) [mg/L] | MIC (K. pneumoniae NCTC 13439) [mg/L] | MIC (K. pneumoniae S 48) [mg/L] | MIC (K. pneumoniae S 50) [mg/L] | MIC [1] [mg/L] | MIC (P. aeruginosa Q-111) [mg/L] | MIC (P. aeruginosa S 504) [mg/L] | MIC (P. aeruginosa S 508) [mg/L] | MIC (P. aeruginosa S 513) [mg/L] | SMILES | Bacterial count ([3]; 2 hours) [Log CFU/ml] | Bacterial count ([3]; 4 hours) [Log CFU/ml] | Bacterial count ([3]; 6 hours) [Log CFU/ml] | further results
1 | > 64 | > 64 | > 64 | > 64 | > 64 | > 64 | > 64 | > 64 | 4 | > 64 | > 64 | > 64 | > 32 | 16 | > 32 | > 32 | > 32 | NCC[C@H](O)C(=O)N[C@@H]1C[C@H](N)[C@@H](O[C@H]2O[C@H](CN)[C@@H](O)[C@H](O)[C@H]2O)[C@H](O)[C@H]1O[C@H]1O[C@H](CO)[C@@H](O)[C@H](N)[C@H]1O [Amikacin, amikacin] |  |  |  | 
2 | 0.12 | 0.25 | 0.25 | 0.12 | 0.25 | 0.25 | > 32 | > 32 | 0.5 | > 32 | 0.5 | 0.5 | 8 | 4 | 8 | 8 | 8 | O=C(NNC(=O)[C@@H]1CC[C@@H]2CN1C(=O)N2OS(=O)(=O)O)[C@@H]1CCCNC1 [Compound of Formula (I), (2S,5R)-sulphuric acid mono-[2-(N′—[(R)-piperidin-3-carbonyl]-hydrazinocarbonyl)-7-oxo-1,6-diaza-bicyclo[3.2.1]oct-6-yl] ester] | 7.27 | 7.04 | 7.45 | Bacterial count ([2]; 2 hours): 6.4 Log CFU/ml; Bacterial count ([2]; 4 hours): 6.08 Log CFU/ml; Bacterial count ([2]; 6 hours): 6.28 Log CFU/ml; Change in bacterial count (in words) [2, 5]: no decrease in bacterial count was observed; Change in bacterial count (in words) [3, 5]: no decrease in bacterial count was observed; MICs (range over the strains) [4]: 0.1 to 0.5 µg/mL
3 |  |  |  |  |  |  |  |  |  |  |  |  |  |  |  |  |  | C[C@@H](O)[C@H]1C(=O)N2C(C(=O)O)=C(SCCN=CN)C[C@H]12 [Imipenem, imipenem] | 7.38 | 8.32 | 8.81 | 
